# Data from patent publication US20140294729A1, “METHODS FOR IDENTIFICATION AND USE OF AGENTS TARGETING CANCER STEM CELLS” (Whitehead Institute for Biomedical Research, priority 2008, published 2014).
# “Also recorded” adds a separate entry of the source.
# Columns and labels:
# MCF7Ras cells = experiment: Mammosphere-forming potential of treated MCF7Ras cells; format: cell-based; conditions: FIG. 14
# Protocol: (§1) FIG. 14A depicts the mammosphere forming potential of parental HMLER cells treated with either DMSO, paclitaxel (taxol) or salinomycin at the specified doses. FIG. 14B depicts MCF7Ras or 4T1 cells that were treated with DMSO, paclitaxel or salinomycin. Mammosphere-forming potential is shown below.
# (§2) Mammosphere culture was performed as described (Dontu et al., 2003), except that the culture medium contained 0.9% methyl cellulose (Stem cell technologies) to prevent cell aggregation. […] were plated per well in 96-well plates. The mammospheres were cultured for 7-10 days and then photographed and counted.
# (§3) The mammosphere forming potential of parental HMLER cells treated with either DMSO, paclitaxel (taxol) or salinomycin was also examined at various doses. Salinomycin, but not paclitaxel inhibited mammosphere formation in MCF7Ras or 4T1 cells. (FIG. 14.) The effects of salinomycin, paclitaxel or vehicle control treatments on in vivo tumor formation by SUM159 breast cancer cells injected in mice was determined. […] (FIG. 15A.) The mammosphere-forming potential of cancer cells obtained from SUM159 tumors from salinomycin, paclitaxel or DMSO-treated mice was also determined (FIG. 15B.)
# SUM159 cells = experiment: FACS of the CD44hi/CD24lo fraction in treated SUM159 cells; format: cell-based; conditions: for percent of cells in the CD44hi/CD2410 fraction relative to DMSO controls: FIGS. 5C and 5D
# Excerpt: FIG. 5A depicts flow cytometry analysis of Sum159, MDA-MB-231 and T47D cell lines with respect to cell surface expression of CD44 and CD24. Note that while the majority of cells in Sum159 and MDA-MB-231 line contain large amounts of CSCs, T47D cells have very few such cells. FIG. 5B depicts dose response curves of Sum159, MDA-MB-231 and T47D cell treated with Salinomycin.
# To further characterize the effects of compound treatment on cancer cells, we conducted FACS analyses on SUM159 cells treated with salinomycin, abamectin, taxol, or DMSO.
# (§4) The anti-CD44 (clone G44-26) antibody conjugated to APC and the anti-CD24 antibody (clone ML5) conjugated to PE used for FACS analysis were obtained from BD Bioscience and used according to the manufacturer's instructions. Propidium Iodide (5 ug/ml) was included in the staining protocol to distinguish live cells.
# [1] = test system: SUM159 breast cancer cells; experiment: In vivo tumor formation by SUM159 breast cancer cells in treated mice; conditions: FIG. 15A
# Protocol: FIG. 15A depicts in vivo tumor formation by SUM159 breast cancer cells in mice that were treated with salinomycin, paclitaxel or vehicle. […] FIG. 15B depicts the mammosphere-forming potential of cancer cells obtained from SUM159 tumors from salinomycin, paclitaxel or DMSO-treated mice.
# as §3
# [2] = test system: SUM159 breast cancer cells; experiment: Mammosphere formation assay with SUM159 breast cancer cells; format: cell-based
# Protocol: (§5) To directly evaluate the effect of salinomycin on cancer stem cell populations, we functionally assayed for cancer stem cell activity in salinomycin, taxol, or DMSO-treated cultures.
# as §2
# HMLER cells [3] = experiment: Mammosphere formation assay of treated HMLER cells; format: cell-based, human
# Protocol: (§6) FIGS. 6A and 6B depict effects of salinomycin on the CSC population in HMLER cell line. (FIG. 6A) HMLER cells were treated with vehicle control (dmso), salinomycin or paclitaxel at the indicated concentrations for 15 days. FACS analysis were performed at the end of treatment to gauge the CD44+/CD24− CSC population (right panels). Note that salinomycin decreases the CD44+/CD24− population from a basal of 4.9% to 0.2%. Treated cultures were also subjected to the mammosphere formation assay (left panels). Number of mammopsheres formed per 1000 cells from each culture are indicated below the representative photographs of assay wells. (FIG. 6B) Growth rates of HMLER cultures after treatment with vehicle control (dmso), salinomycin or paclitaxel at the indicated concentrations in (A) for 15 days.
# We examined the ability of breast cancer cells to form mammospheres following treatment with salinomycin.
# as §2
# [4] = test system: CSCs in breast cancer cell populations; experiment: In vivo tumor-seeding ability after in vitro drug treatment (serial dilution, subcutaneous injection); set-up: species or system NOD/SCID mice
# Protocol: Finally, we also directly assessed the functional presence of CSCs by assaying in vivo tumor-seeding ability following drug treatment. Cells were treated in vitro for 5 days and then injected subcutaneously into NOD/SCID mice. […] The proportion of functional CSCs was thus reduced by 1000-fold following salinomycin treatment compared to paclitaxel treatment.
# as §5
# We have established several downstream assays for the follow-up evaluation of screen hits with respect to their effects on cancer stem cells: (1) Treat cells in culture for a period of time with screen hits (e.g., compounds, compositions, antibodies, shRNAs, etc.), including the necessary controls, and then allow the cells to recover for a period (e.g., up to 12 hours, up to 24 hours, up to 48 hours, up to 72 hours etc.), and then perform FACS with markers that identify populations enriched for cancer stem cells (for example, but not limited to, CD44+/CD24− in the case of breast cancer). (2) Treat cells in culture for a period of time with screen hits, allow them to recover for a prescribed period of time, and then perform colony formation assays in suspension in the absence of chemical compound (for breast cancer cells, these assays are referred to as mammosphere formation assays). (3) Treat cells in culture for a period of time with screen hits, allow them to recover for a prescribed period of time, and then inject cells at various cell numbers subcutaneously into immunocompromised animals and evaluate the frequency of tumor formation. The number of injected cells could include 10̂6, 10̂5, 10̂4, 10̂3, and 10̂2 cells. Using follow-up assays, such as those disclosed herein, one can evaluate whether or not a screen hit (or any drug with potential CSC-directed activity) is a bonafide inhibitor of cancer stem cells.
# HMLER cells [5] = experiment: FACS of the CD44+/CD24- CSC population in treated HMLER cells; format: cell-based, human
# Protocol: as §6
# We then turned to the critical question of whether the compounds had the general ability to inhibit CSCs in breast cancer cell lines. […] We next compared the effects of salinomycin, control vehicle DMSO and paclitaxel on HMLER cells. […] The CD44+/CD24− fraction was thus 360-fold lower following treatment with salinomycin than with paclitaxel (FIG. 6A). Proliferation of the bulk population was not inhibited following treatment with salinomycin relative to either vehicle- or paclitaxel-treatment (FIG. 6B).
# as §4
# 4T1 cells = experiment: Mammosphere-forming potential of treated 4T1 cells; format: cell-based; conditions: FIG. 14
# Protocol: as §1, §2, §3
Structure (SMILES),mammosphere formation (MCF7Ras cells),percent of cells in the CD44hi/CD2410 fraction relative to DMSO controls (SUM159 cells),tumor volume / tumor growth compared with vehicle control [1],number of cells capable of forming colonies in suspension culture relative to DMSO [2],mammosphere size (HMLER cells [3]),effect on the number of mammospheres (HMLER cells [3]; FIG. 6A),"increase in tumor-seeding ability relative to controls ([4]; cells treated in vitro for 5 days, data not shown)","CSC functional activity / CSC number in tumor-formation dilution series relative to DMSO-treated controls ([4]; mouse, in vivo)","CSC functional activity / CSC number in tumor-formation dilution series relative to DMSO-treated controls ([4]; mouse, in vivo, listed as taxol)",increase of the CSC-fraction (CD44+/CD24−) (HMLER cells [5]; FIG. 6A),mammosphere formation (4T1 cells),increase in the CSC-depleted fraction (SUM159 cells),percent of cells in the CD44hi/CD2410 fraction relative to DMSO controls (SUM159 cells; listed as Salinomycin),decrease in the number of mammospheres relative to controls (HMLER cells [3]; FIG. 6A),"decrease in tumor-seeding ability (CSCs) relative to vehicle/control treatment ([4]; cells treated in vitro for 5 days, injected subcutaneously, data not shown)","reduction of functional CSCs following salinomycin compared to paclitaxel treatment ([4]; mouse, in vivo)",CD44+/CD24− population after treatment (basal 4.9%) (HMLER cells [5]; 15 days),CD44+/CD24− fraction lower following salinomycin than with paclitaxel (HMLER cells [5]; FIG. 6A),decrease of the proportion of CD44+/CD24− cells relative to vehicle-treated controls (HMLER cells [5]; FIG. 6A)
CC(=O)O[C@H]1C(=O)[C@@]2(C)[C@H]([C@H](OC(=O)c3ccccc3)[C@]3(O)C[C@H](OC(=O)[C@H](O)[C@@H](NC(=O)c4ccccc4)c4ccccc4)C(C)=C1C3(C)C)[C@]1(OC(C)=O)CO[C@@H]1C[C@@H]2O [paclitaxel],not,did not significantly affect,reduced tumor volume,increase,significant increase,neither paclitaxel nor vehicle treatment affected the number of mammospheres,~10 fold,induced an increase in CSCs,opposite effect,18 fold,not,–,–,–,–,–,–,–,–
CC[C@@H](C(=O)[C@@H](C)[C@@H](O)[C@H](C)[C@@H]1O[C@@H]([C@@H](CC)C(=O)O)CC[C@@H]1C)[C@H]1O[C@]2(C=C[C@@H](O)[C@]3(CC[C@@](C)([C@H]4CC[C@](O)(CC)[C@H](C)O4)O3)O2)[C@H](C)C[C@@H]1C [salinomycin],inhibited,significantly reduced,reduced tumor volume; also recorded: inhibition of tumor growth,significantly reduced,–,–,–,significantly reduced,–,–,inhibited,~3 fold,decrease in the CSC population,~10 fold,100 fold,1000 fold,0.2%,360 fold,20 fold
